Source: patent US20250311727A1, “SUBSTITUTED 2-AMINOAZINES AND SALTS THEREOF, AND USE THEREOF AS HERBICIDAL ACTIVE SUBSTANCES” (BAYER AKTIENGESELLSCHAFT, priority 2022, published 2025)

Key:
Type in all cases: in vivo
[1] = tested on: Echinochloa crus-galli; assay: Pre-emergence herbicide efficacy at 320 g/ha, ECHCG; conditions: scored visually after about 3 weeks vs untreated controls, 100% = plants have died
Summary of the method: (§1)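 Visual percent activity versus untreated controls, read about 3 weeks after treatment, where 100% means dead plants and 0% means control-like growth. Compound (WP or EC, 0.5% additive, 600 L/ha water) was sprayed onto the covering soil over freshly sown weed seeds in sandy loam, then kept in a greenhouse.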

[2] = tested on: Matricaria inodora; assay: Pre-emergence herbicide efficacy at 80 g/ha, MATIN; conditions: scored visually after about 3 weeks vs untreated controls, 100% = plants have died
Source text: (§2) Unwanted plants/weeds: • ABUTH: Abutilon theophrasti • ALOMY: Alopecurus myosuroides • AMARE: Amaranthus retroflexus • DIGSA: Digitaria sanguinalis • ECHCG: Echinochloa crus-galli • KCHSC: Kochia scoparia • LOLRI: Lolium rigidum • MATIN: Matricaria inodora • POAAN: Poa annua • POLCO: Polygonum convolvulus • SETVI: Setaria viridis • STEME: Stellaria media • VERPE: Veronica persica • VIOTR: Viola tricolor A. Post-Emergence Herbicidal Efficacy at 320 g/ha
(§3) Seeds of monocotyledonous and dicotyledonous weed plants and crop plants were placed in plastic or organic planting pots and covered with soil. The compounds of the invention, formulated in the form of wettable powders (WP) or as emulsion concentrates (EC), were then applied to the surface of the covering soil as aqueous suspension or emulsion with addition of 0.5% additive at a water application rate equivalent to 600 l/ha. After the treatment, the pots were placed in a greenhouse and kept under good growth conditions for the test plants. After about 3 weeks, the efficacy of the preparations was scored visually in comparison with untreated controls as percentages. For example, 100% activity=the plants have died, 0% activity=like control plants.
(§4) Tables D1 to D12 below show the effects of selected compounds of the general formula (I) according to Table 1 on various harmful plants and an application rate corresponding to 80 g/ha, which were obtained by the experimental procedure mentioned above.

[3] = tested on: Digitaria sanguinalis; assay: Post-emergence herbicidal efficacy at 320 g/ha, DIGSA; conditions: rated visually after about 3 weeks vs untreated controls, 100% = plants have died
Summary of the method: (§5)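 Effects are visual ratings taken about three weeks after foliar application, scaled from 0% (as untreated control) to 100% (plants died). Application was at the one-leaf stage in greenhouse-grown pots.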

[4] = tested on: Poa annua; assay: Post-emergence herbicidal efficacy at 320 g/ha, POAAN; conditions: rated visually after about 3 weeks vs untreated controls, 100% = plants have died
Summary of the method: as §5

[5] = tested on: Viola tricolor; assay: Post-emergence herbicidal efficacy at 80 g/ha, VIOTR; conditions: rated visually after about 3 weeks vs untreated controls, 100% = plants have died
Source text: as §2
Seeds of monocotyledonous and dicotyledonous weeds and crop plants were placed in sandy loam in plastic or organic planting pots, covered with soil and cultivated in a greenhouse under controlled growth conditions. 2 to 3 weeks after sowing, the test plants were treated at the one-leaf stage. The compounds of the invention, formulated in the form of wettable powders (WP) or as emulsion concentrates (EC), were then sprayed onto the green parts of the plants as aqueous suspension or emulsion with addition of 0.5% additive at a water application rate of 600 l/ha (converted). After the test plants had been kept in the greenhouse under optimum growth conditions for about 3 weeks, the activity of the preparations was rated visually in comparison to untreated controls. For example, 100% activity=the plants have died, 0% activity=like control plants.
Tables B1 to B11 below show the effects of selected compounds of the general formula (I) according to Table 1 on various harmful plants and an application rate corresponding to 80 g/ha, which were obtained by the experimental procedure mentioned above.

[6] = tested on: Amaranthus retroflexus; assay: Post-emergence herbicidal efficacy at 80 g/ha, AMARE; conditions: rated visually after about 3 weeks vs untreated controls, 100% = plants have died
Summary of the method: (§6)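 Visual damage ratings, 0% (like untreated controls) to 100% (plants dead), were taken about 3 weeks after treatment. Plants were sprayed at the one-leaf stage with WP- or EC-formulated compound in water containing 0.5% additive, 600 l/ha, having been raised in sandy loam in the greenhouse.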

[7] = tested on: Viola tricolor; assay: Pre-emergence herbicide efficacy at 80 g/ha, VIOTR
Summary of the method: (§7)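 Pre-emergence soil-surface spray over freshly sown, soil-covered seeds; WP/EC formulation, 0.5% additive, 600 l/ha water volume. Greenhouse, ~3 wk. Readout: visual % efficacy vs untreated (0% = control-like, 100% = dead).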

[8] = tested on: Veronica persica; assay: Pre-emergence herbicide efficacy at 80 g/ha, VERPE
Source text: as §2, §3, §4

[9] = tested on: Setaria viridis; assay: Post-emergence herbicidal efficacy at 320 g/ha, SETVI; conditions: rated visually after about 3 weeks vs untreated controls, 100% = plants have died
Summary of the method: as §5

[10] = tested on: Matricaria inodora; assay: Pre-emergence herbicide efficacy at 320 g/ha, MATIN; conditions: scored visually after about 3 weeks vs untreated controls, 100% = plants have died
Summary of the method: as §1

[11] = tested on: Kochia scoparia; assay: Post-emergence herbicidal efficacy at 80 g/ha, KCHSC; conditions: rated visually after about 3 weeks vs untreated controls, 100% = plants have died
Summary of the method: as §6

[12] = tested on: Poa annua; assay: Pre-emergence herbicide efficacy at 320 g/ha, POAAN; conditions: scored visually after about 3 weeks vs untreated controls, 100% = plants have died
Summary of the method: as §1

[13] = tested on: Amaranthus retroflexus; assay: Pre-emergence herbicide efficacy at 80 g/ha, AMARE; conditions: scored visually after about 3 weeks vs untreated controls, 100% = plants have died
Summary of the method: as §7

[14] = tested on: Abutilon theophrasti; assay: Pre-emergence herbicide efficacy at 320 g/ha, ABUTH; conditions: scored visually after about 3 weeks vs untreated controls, 100% = plants have died
Summary of the method: as §1

[15] = tested on: Veronica persica; assay: Pre-emergence herbicide efficacy at 320 g/ha, VERPE; conditions: scored visually after about 3 weeks vs untreated controls, 100% = plants have died
Summary of the method: as §1

[16] = tested on: Kochia scoparia; assay: Post-emergence herbicidal efficacy at 320 g/ha, KCHSC; conditions: rated visually after about 3 weeks vs untreated controls, 100% = plants have died
Summary of the method: as §5

[17] = tested on: Setaria viridis; assay: Pre-emergence herbicide efficacy at 320 g/ha, SETVI; conditions: scored visually after about 3 weeks vs untreated controls, 100% = plants have died
Summary of the method: as §1

[18] = tested on: Abutilon theophrasti; assay: Post-emergence herbicidal efficacy at 320 g/ha, ABUTH; conditions: rated visually after about 3 weeks vs untreated controls, 100% = plants have died
Summary of the method: as §5

[19] = tested on: Echinochloa crus-galli; assay: Post-emergence herbicidal efficacy at 320 g/ha, ECHCG; conditions: rated visually after about 3 weeks vs untreated controls, 100% = plants have died
Summary of the method: as §5

[20] = tested on: Setaria viridis; assay: Pre-emergence herbicide efficacy at 80 g/ha, SETVI
Summary of the method: as §7

[21] = tested on: Veronica persica; assay: Post-emergence herbicidal efficacy at 80 g/ha, VERPE; conditions: rated visually after about 3 weeks vs untreated controls, 100% = plants have died
Summary of the method: as §6

[22] = tested on: Kochia scoparia; assay: Pre-emergence herbicide efficacy at 80 g/ha, KCHSC; conditions: scored visually after about 3 weeks vs untreated controls, 100% = plants have died
Summary of the method: as §7

[23] = tested on: Polygonum convolvulus; assay: Pre-emergence herbicide efficacy at 80 g/ha, POLCO; conditions: scored visually after about 3 weeks vs untreated controls, 100% = plants have died
Source text: as §2, §3, §4

[24] = tested on: Kochia scoparia; assay: Pre-emergence herbicide efficacy at 320 g/ha, KCHSC; conditions: scored visually after about 3 weeks vs untreated controls, 100% = plants have died
Summary of the method: as §1

[25] = tested on: Echinochloa crus-galli; assay: Pre-emergence herbicide efficacy at 80 g/ha, ECHCG; conditions: scored visually after about 3 weeks vs untreated controls, 100% = plants have died
Source text: as §2, §3, §4

[26] = tested on: Amaranthus retroflexus; assay: Pre-emergence herbicide efficacy at 320 g/ha, AMARE; conditions: scored visually after about 3 weeks vs untreated controls, 100% = plants have died
Summary of the method: as §1

[27] = tested on: Digitaria sanguinalis; assay: Pre-emergence herbicide efficacy at 320 g/ha, DIGSA; conditions: scored visually after about 3 weeks vs untreated controls, 100% = plants have died
Summary of the method: as §1

[28] = tested on: Digitaria sanguinalis; assay: Pre-emergence herbicide efficacy at 80 g/ha, DIGSA; conditions: scored visually after about 3 weeks vs untreated controls, 100% = plants have died
Summary of the method: as §7

[29] = tested on: Stellaria media; assay: Pre-emergence herbicide efficacy at 320 g/ha, STEME; conditions: scored visually after about 3 weeks vs untreated controls, 100% = plants have died
Summary of the method: as §1

[30] = tested on: Amaranthus retroflexus; assay: Post-emergence herbicidal efficacy at 320 g/ha, AMARE; conditions: rated visually after about 3 weeks vs untreated controls, 100% = plants have died
Summary of the method: as §5

[31] = tested on: Lolium rigidum; assay: Pre-emergence herbicide efficacy at 320 g/ha, LOLRI; conditions: scored visually after about 3 weeks vs untreated controls, 100% = plants have died
Source text: as §2
Seeds of mono- and dicotyledonous weed plants were placed in plastic pots in sandy loam soil (doubly sown with one species each of mono- or dicotyledonous weed plants per pot) and covered with soil. The compounds of the invention, formulated in the form of wettable powders (WP) or as emulsion concentrates (EC), were then applied to the surface of the covering soil as aqueous suspension or emulsion with addition of 0.5% additive at a water application rate of 600 litres per hectare (converted). After the treatment, the pots were placed in a greenhouse and kept under good growth conditions for the test plants. After about 3 weeks, the efficacy of the preparations was scored visually in comparison with untreated controls as percentages.
For example, 100% activity=the plants have died, 0% activity=like control plants.
Tables C1 to C12 below show the effects of selected compounds of the general formula (I) according to Table 1 on various harmful plants and at an application rate corresponding to 320 g/ha, which were obtained by the trial procedure specified above.

[32] = tested on: Veronica persica; assay: Post-emergence herbicidal efficacy at 320 g/ha, VERPE; conditions: rated visually after about 3 weeks vs untreated controls, 100% = plants have died
Summary of the method: as §5

[33] = tested on: Stellaria media; assay: Post-emergence herbicidal efficacy at 320 g/ha, STEME; conditions: rated visually after about 3 weeks vs untreated controls, 100% = plants have died
Summary of the method: as §5

SMILES: N#Cc1cccc(Nc2ncc(F)cn2)c1-n1cc(C(F)(F)F)cn1 [Example 1-60]
- Pre-emergence efficacy at 320 g/ha against ECHCG in % [1]: 90%
- Pre-emergence efficacy at 80 g/ha against MATIN in % [2]: 100%
- Post-emergence efficacy at 320 g/ha against DIGSA in % [3]: 90%
- Post-emergence efficacy at 320 g/ha against POAAN in % [4]: 100%
- Post-emergence efficacy at 80 g/ha against VIOTR in % [5]: 90%
- Post-emergence efficacy at 80 g/ha against AMARE in % [6]: 90%
- Pre-emergence efficacy against VIOTR [7]: 100%
- Pre-emergence efficacy against VERPE [8]: 80%
- Post-emergence efficacy at 320 g/ha against SETVI in % [9]: 90%
- Pre-emergence efficacy at 320 g/ha against MATIN in % [10]: 100%
- Post-emergence efficacy at 80 g/ha against KCHSC in % [11]: 100%
- Pre-emergence efficacy at 320 g/ha against POAAN in % [12]: 100%
- Pre-emergence efficacy at 80 g/ha against AMARE in % [13]: 100%
- Pre-emergence efficacy at 320 g/ha against ABUTH in % [14]: 90%
- Pre-emergence efficacy at 320 g/ha against VERPE in % [15]: 100%
- Post-emergence efficacy at 320 g/ha against KCHSC in % [16]: 100%
- Pre-emergence efficacy at 320 g/ha against SETVI in % [17]: 90%
- Post-emergence efficacy at 320 g/ha against ABUTH in % [18]: 90%
- Post-emergence efficacy at 320 g/ha against ECHCG in % [19]: 100%
- Pre-emergence efficacy against SETVI [20]: 100%
- Post-emergence efficacy at 80 g/ha against VERPE in % [21]: 100%
- Pre-emergence efficacy at 80 g/ha against KCHSC in % [22]: 100%
- Pre-emergence efficacy at 80 g/ha against POLCO in % [23]: 100%
- Pre-emergence efficacy at 320 g/ha against KCHSC in % [24]: 100%
- Pre-emergence efficacy at 80 g/ha against ECHCG in % [25]: 80%
- Pre-emergence efficacy at 320 g/ha against AMARE in % [26]: 100%
- Pre-emergence efficacy at 320 g/ha against DIGSA in % [27]: 100%
- Pre-emergence efficacy at 80 g/ha against DIGSA in % [28]: 100%
- Pre-emergence efficacy at 320 g/ha against STEME in % [29]: 100%
- Post-emergence efficacy at 320 g/ha against AMARE in % [30]: 100%
- Pre-emergence efficacy at 320 g/ha against LOLRI in % [31]: 90%
- Post-emergence efficacy at 320 g/ha against VERPE in % [32]: 100%
- Post-emergence efficacy at 320 g/ha against STEME in % [33]: 100%
